According to ChEMBL document CHEMBL1201862, “PubChem BioAssay data set” (2004):
Counter-ions that a name gives are not always drawn. Activity calls are given as the source filed them.

Columns and labels:
[1] = P. falciparum Dd2 growth inhibitors, dose response, SYBR Green, cherry-picked samples (AID 1159567); format: functional, cell-based
[2] = target: T1, Oxysterols receptor LXR-beta (Homo sapiens, UniProt P55055); assay: LXR agonists, Gal4 luciferase reporter, dose response, counter-screen for ssDAF-12 agonist project, cell-based, luminescence, HEK293, S. stercoralis campaign (AID 720737); format: functional; conditions: read-out: IC50 (the source's name)
T1 sequence (P55055 whole entry): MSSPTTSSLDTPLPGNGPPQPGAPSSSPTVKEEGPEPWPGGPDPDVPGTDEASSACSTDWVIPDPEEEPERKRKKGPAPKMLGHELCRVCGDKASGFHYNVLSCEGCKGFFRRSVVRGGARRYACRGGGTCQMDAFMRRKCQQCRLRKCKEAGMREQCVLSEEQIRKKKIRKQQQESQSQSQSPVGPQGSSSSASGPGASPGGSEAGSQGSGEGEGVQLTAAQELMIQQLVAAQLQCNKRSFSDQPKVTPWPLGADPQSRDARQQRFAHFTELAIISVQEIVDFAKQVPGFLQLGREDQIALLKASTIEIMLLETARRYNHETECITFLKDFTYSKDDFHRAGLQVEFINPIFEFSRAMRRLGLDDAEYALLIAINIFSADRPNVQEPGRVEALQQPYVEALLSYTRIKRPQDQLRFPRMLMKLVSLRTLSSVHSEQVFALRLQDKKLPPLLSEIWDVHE

[3] = Luminescence-based cell-based high throughput dose response assay to identify activators of the DAF-12 from the parasite S. stercoralis (ssDAF-12).; format: functional
[4] = system: Vero; assay: cells; format: functional; conditions: Chlorocebus sabaeus
[5] = system: Vero; assay: cells; format: functional, cell-based; conditions: Chlorocebus sabaeus
[6] = target: T2, Leucine aminopeptidase (Plasmodium falciparum 3D7, UniProt Q8IL11); assay: P. falciparum M17LAP inhibitors, primary screen, biochemical, fluorogenic H-Leu-NHMec substrate, 1536-well (AID 1619); format: functional
T2 sequence (Q8IL11 whole entry): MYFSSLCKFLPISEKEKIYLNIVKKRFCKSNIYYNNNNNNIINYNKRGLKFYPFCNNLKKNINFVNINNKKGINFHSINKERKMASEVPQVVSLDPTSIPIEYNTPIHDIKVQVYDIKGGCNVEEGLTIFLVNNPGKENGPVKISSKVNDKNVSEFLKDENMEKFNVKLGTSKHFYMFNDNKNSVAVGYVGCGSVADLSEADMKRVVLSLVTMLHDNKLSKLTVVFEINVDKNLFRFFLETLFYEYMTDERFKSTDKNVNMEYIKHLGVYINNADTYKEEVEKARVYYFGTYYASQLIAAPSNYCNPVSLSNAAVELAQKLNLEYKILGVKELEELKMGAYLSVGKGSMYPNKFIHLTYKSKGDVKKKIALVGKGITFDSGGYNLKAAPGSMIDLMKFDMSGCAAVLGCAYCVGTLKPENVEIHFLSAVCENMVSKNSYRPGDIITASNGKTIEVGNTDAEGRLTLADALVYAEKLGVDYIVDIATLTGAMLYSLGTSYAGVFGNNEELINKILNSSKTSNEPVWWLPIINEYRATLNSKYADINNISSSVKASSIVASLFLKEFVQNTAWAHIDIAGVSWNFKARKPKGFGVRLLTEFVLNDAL

[7] = cytotoxicity in KRAS-transformed pancreatic duct cells, primary screen, cell-based, fluorescence, HTS (AID 431); format: functional; conditions: Homo sapiens;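 further: cell line used: HPDE-C7K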
[8] = cytotoxicity in HPDE-C7 cells, cell-based, fluorescence, HTS (AID 430); format: functional; conditions: Homo sapiens
[9] = miR-122 activators in hepatoma reporter cells, dose response, cell-based, Huh7 psiCHECK-miR122, Renilla luciferase, cherry-picked (AID 651956); format: functional;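 further: huh7 hepatoma cells stably carrying a psiCHECK-2 miR-122 sensor plasmid; renilla luciferase signal reporting endogenous miR-122 activity after 48 h compound exposure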
[10] = HEK293T cytotoxicity, dose response, cytotoxicity control for miR-122 modulator project, cell-based, inhibitor set, cherry-pick, set 2 (AID 720697); format: functional
[11] = target: T3, DNA repair protein RAD52 homolog (Homo sapiens, UniProt P43351); format: functional, biochemical
T3 sequence (P43351 whole entry): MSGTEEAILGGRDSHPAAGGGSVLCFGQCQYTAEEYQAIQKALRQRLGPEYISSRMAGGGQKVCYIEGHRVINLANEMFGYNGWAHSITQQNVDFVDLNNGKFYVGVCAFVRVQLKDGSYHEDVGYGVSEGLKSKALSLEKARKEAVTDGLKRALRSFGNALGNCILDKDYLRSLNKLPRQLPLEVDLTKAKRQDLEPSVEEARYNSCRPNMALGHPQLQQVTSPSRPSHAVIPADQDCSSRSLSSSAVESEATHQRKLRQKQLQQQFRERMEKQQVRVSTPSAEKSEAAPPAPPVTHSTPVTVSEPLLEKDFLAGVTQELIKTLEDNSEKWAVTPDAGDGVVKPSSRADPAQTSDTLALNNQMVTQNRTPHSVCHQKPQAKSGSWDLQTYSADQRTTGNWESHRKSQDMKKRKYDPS

[12] = growth suppression of beta-catenin-knockout colon cells, dose response, cell-based, HCT116, human colon tumor (AID 1045); format: functional;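 further: HCT116 colon tumor cells with beta catenin knocked out; cells exposed to compound for 60 hours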
[13] = Luminescence Cell-Based Dose Response HTS to Identify Inhibitors of 5'UTR Stem-Loop Driven Prion Protein mRNA Translation in H4 Neuroglioblastoma Cells. [Related pubchem assays: 1827 (Project Summary), 1813 (Primary HTS)]; format: functional
[14] = growth suppression of PTEN-null colon cells, dose response, cell-based, HCT116 PTEN knockout (AID 1047); format: functional;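 further: HCT116 colon tumor cells with PTEN knocked out; cells exposed to compound for 60 hours before readout; potency for loss of cell viability measured by luminescence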
[15] = inhibitors of firefly luciferase expression or activity, dose response, H4 neuroglioma cells, luminescence (AID 1990); format: functional, cell-based
[16] = inhibitors of SNCA 5'UTR-driven reporter translation, confirmation, H4 neuroglioma cells, luminescence (AID 1988); format: functional, cell-based
[17] = system: P388/ADR; assay: cells; format: functional; conditions: Mus musculus
[18] = system: SN12K1; assay: cells; format: functional; conditions: Homo sapiens
[19] = target: Paired box protein Pax-8 (Homo sapiens, UniProt Q06710); assay: inhibitors of PAX8-driven TPO luciferase reporter, dose response, RMG-I cells, cherry-pick (AID 687027); format: functional, cell-based;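 further: luciferase reporter driven by Pax8 target thyroperoxidase promoter measured by SteadyGlo luminescence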
[20] = system: P388; assay: cells; format: functional; conditions: Mus musculus

Sequence of Paired box protein Pax-8 (Q06710 whole entry): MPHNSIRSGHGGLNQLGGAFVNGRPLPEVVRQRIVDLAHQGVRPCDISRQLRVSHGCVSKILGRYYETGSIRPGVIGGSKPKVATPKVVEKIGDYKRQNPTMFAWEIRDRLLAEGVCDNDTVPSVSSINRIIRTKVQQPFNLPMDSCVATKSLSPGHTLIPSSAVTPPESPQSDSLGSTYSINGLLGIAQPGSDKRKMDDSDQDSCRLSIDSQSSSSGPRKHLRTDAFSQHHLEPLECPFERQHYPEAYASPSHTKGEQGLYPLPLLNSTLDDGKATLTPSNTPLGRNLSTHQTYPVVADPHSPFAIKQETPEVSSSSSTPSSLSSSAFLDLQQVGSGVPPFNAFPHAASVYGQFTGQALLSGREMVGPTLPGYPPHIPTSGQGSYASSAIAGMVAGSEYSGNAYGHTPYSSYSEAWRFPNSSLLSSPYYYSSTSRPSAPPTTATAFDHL

O=C(C1CCOCC1)N1[C@H](CO)[C@@H](c2ccccc2)C12CN(Cc1cccc(Cl)c1)C2
AC50 [1]: 5.41 µM (active)

N#Cc1cc2ccccc2nc1SCc1ccccn1
EC50 [2]: > 67.5 µM (inactive) | IC50 [3]: > 67.5 µM (inactive)

O=C(CCNC(=O)c1ccccc1)N=Nc1c(O)[nH]c2ccccc12
EC50 [2]: > 67.5 µM (inactive) | IC50 [3]: > 67.5 µM (inactive)

CC(=O)/C(C#N)=C1\NC(=O)C(Cc2ccccc2Cl)S1 (centres undefined)
CC50 [4]: 18.9 µM (active) | IC50 [5]: 2.83 µM (active) | IC50 [6]: 26.6 µM (active)

CCOc1ccc(N(Cc2cc3cc(OC)ccc3nc2O)S(C)(=O)=O)cc1
EC50 [7]: > 20 µM (not active) | EC50 [8]: > 20 µM (not active)

C[C@@H]1CN([C@@H](C)CO)C(=O)c2cc(NS(=O)(=O)c3ccc(F)cc3)ccc2O[C@@H]1CN(C)Cc1ccc(-c2ccccc2)cc1
AC50 [9]: 17.7 µM (active) | AC50 [10]: < 0.195 µM (active)

CSc1ccc2c(c1)N(CCC1CCCCN1C)c1ccccc1S2 (centres undefined) [THIORIDAZINE HYDROCHLORIDE]
EC50 [7]: 3.43 µM (active) | AC50 [11]: 13.7 µM (active) | EC50 [8]: 8.18 µM (active) | EC50 [12]: 9.28 µM (active) | EC50 [13]: > 60 µM (not active) | EC50 [14]: 11.1 µM (active) | EC50 [15]: > 120 µM (not active) | EC50 [16]: > 120 µM (not active)

CCc1ccc2cc3c(cc2n1)C(=O)c1ccccc1-3
EC50 [2]: > 67.5 µM (inactive) | IC50 [3]: > 67.5 µM (inactive)

Oc1cc(O)c2sc3nc(-c4cccnc4)cc(C(F)(F)F)c3c2n1
IC50 [6]: 58.2 µM (active)

COc1ccc(CC2C(=O)NC(C)C(=O)N(C)C3C(=O)N(C)C(Cc4ccc(O)c(c4)Oc4ccc(cc4)C3O)C(=O)NC(C)C(=O)NC(C)C(=O)N2C)cc1 (centres undefined)
GI50 [17]: 2.26 µM (inactive) | GI50 [18]: 0.00262 µM (active) | AC50 [19]: < 0.26 µM (active) | GI50 [20]: 0.00373 µM (active)

CCCCC[C@H](O)/C=C/[C@H]1C=CC(=O)[C@@H]1C/C=C\CCCC(=O)O [PROSTAGLANDIN A2]
EC50 [7]: > 20 µM (not active) | EC50 [8]: > 20 µM (not active)
